# Measured values taken from patent publication US20100028839A1, “METHODS AND SYSTEMS FOR EVALUATING MEMORY AGENTS” (priority 2008, published 2010).
# Values joined by “and” are separate entries in the source; they are usually repeats but may differ in a detail not shown here. Equal values may be shown once.
# Assays:
# [1] = test system: aged male macaques; assay: Discrimination Learning - Long Term Retrieval task (DL LTR); assay type: in vivo; details: for RT 1-14 (retention test trials 1 to 14), mean / RT 15-28 (retention test trials 15 to 28), mean / retention test, mean / RT overall / RT trials 1-14 / RT trials 15-28: day 8 post-criterion; for RT overall / RT trials 1-14 / RT trials 15-28: raw data of individual animals; for C value / Days to C: raw data of individual animals (Old-1, -2, -5, -7, -8, -9)
# Procedure: (§1) The study was conducted using 6 aged male macaques (age approximately 22 years at onset of the study which is equivalent to approximately 66 human years) previously trained to performed certain memory tasks. Assessments of memory performance used the CANTAB system (the Cambridge Neuropsychological Test Automated Battery) and a new task.
# In this task, animals are presented with 2 pairs of stimuli (e.g. 1 pair of shapes and 1 pair of lines) over the course of a daily test session. For each pair of stimuli, one stimulus is arbitrarily designated as the positive stimulus (i.e., touch of that stimulus is rewarded). Each pair of stimuli is presented 14 times during a daily session that consists of 28 trials. The pairs of stimuli (shapes or lines) are presented in a pseudo randomized fashion during each session. Animals have to touch the “positive” shape or line in order to receive a sugar pellet reward accompanied by a pleasant tone. Touching the alternative shape or line results in a negative tone, no sugar pellet and a time out. Animals are tested daily until they reach a performance criterion of 85% correct responses during a daily session. When this criterion is reached, animals receive no further testing for the next 7 days. On day 8 post-criterion, animals are tested again using the same pairs of stimuli that they have seen previously learned in order to assess long term retrieval of the learned discriminations.
# (§2) All drugs were administered orally in marshmallow while the animal was in a specially designed testing cage. Vehicle was marshmallow alone.
# (§3) Treatments were administered sequentially starting with treatment 1. Each treatment (dose of HT-0712 or vehicle) was administered once per day for 4 days before behavioral training began and then continued at 1 treatment (dose of HT-0712 or vehicle) per day, delivered four hours before testing, for the duration of the training period. When each individual animal reached performance criterion of at least 85% correct responses during a daily session, training and dosing ceased for seven days. Then, on post-criterion day 8, animals were tested again on the DL LTR task (retention testing).
# The percent correct responses on the total number of daily trials were recorded as well as the number of days needed to reach the criterion (at least 85% correct responses in a single test session). The percent correct responses on the retention trial was recorded for the entire retention trial session and sub-analyzed for performance differences on trials 1-14 versus trials 15-28.
# Data from vehicle trials were compared to data from drug trials using a one way ANOVA. Post hoc comparisons were made using the Bonferroni t-test.
# [2] = test system: aged male macaques; assay: Observation of behavioral or physical side effects during the DL LTR study; assay type: in vivo; details: any dose given (1, 10, 100 mg/kg p.o. daily)
# Procedure: as §1, §2, §3
# Data from this non-responder were removed from the statistical analysis.
# [3] = test system: aged rats; details: treatment of aged rats; cited from earlier work
# [4] = 1 mg/kg p.o. daily, excluding NHP old-9 (N=5), mean±s.e.m.
# [5] = 1 mg/kg p.o. daily, including NHP old-9 (N=6)
# [6] = 1 mg/kg p.o. daily, entire study group including NHP old-9 (N=6)
# [7] = 1 mg/kg p.o. daily, excluding non-responder NHP old-9 (N=5), mean±s.e.m.
# [8] = 10 mg/kg p.o. daily, excluding NHP old-9 (N=5), mean±s.e.m.
# [9] = 10 mg/kg p.o. daily, including NHP old-9 (N=6)
# [10] = 10 mg/kg p.o. daily, entire study group including NHP old-9 (N=6)
# [11] = 10 mg/kg p.o. daily, excluding non-responder NHP old-9 (N=5), mean±s.e.m.
# [12] = 100 mg/kg p.o. daily, excluding NHP old-9 (N=5), mean±s.e.m.
# [13] = 100 mg/kg p.o. daily, including NHP old-9 (N=6)
# [14] = 100 mg/kg p.o. daily, entire study group including NHP old-9 (N=6)
# [15] = 100 mg/kg p.o. daily, excluding non-responder NHP old-9 (N=5), mean±s.e.m.
structure (smiles),measurement,setting,value
COc1ccc([C@H]2CNC(=O)[C@H](Cc3cccc(C)c3)C2)cc1OC1CCCC1 [HT-0712],"RT 1-14 (retention test trials 1 to 14), mean",[1]; [4],80.2±6.2 % correct responses and 80.200 % correct responses
same,"RT 15-28 (retention test trials 15 to 28), mean",[1]; [4],91.6±3.4 % correct responses and 91.600 % correct responses
same,"retention test, mean",[1]; [4],85.8±4.6 % correct responses and 85.800 % correct responses
same,"RT 1-14 (retention test trials 1 to 14), mean",[1]; [5],77.500 % correct responses
same,"RT 15-28 (retention test trials 15 to 28), mean",[1]; [5],88.167 % correct responses
same,"retention test, mean",[1]; [5],82.833 % correct responses
same,RT overall,[1]; 1 mg/kg p.o. daily,89.00 % correct responses and 68.00 % correct responses (2×) and 93.00 % correct responses (2×) and 86.00 % correct responses
same,RT trials 1-14,[1]; 1 mg/kg p.o. daily,86.00 % correct responses (2×) and 64.00 % correct responses and 93.00 % correct responses and 79.00 % correct responses and 57.00 % correct responses
same,RT trials 15-28,[1]; 1 mg/kg p.o. daily,93.00 % correct responses (3×) and 71.00 % correct responses and 100.00 % correct responses and 79.00 % correct responses
same,"C value (criterion value reached), mean",[1]; [6],91.000 % correct responses
same,"day to C (days to reach criterion), mean",[1]; [6],12.667 days
same,"C value (criterion value reached), mean",[1]; [7],91.4±1.8 % correct responses and 91.400 % correct responses
same,"day to C (days to reach criterion), mean",[1]; [7],12.0 ± 3.6 days and 12.000 days
same,C value,[1]; 1 mg/kg p.o. daily,96.00 % correct responses and 89.00 % correct responses (2×) and 86.00 % correct responses and 93.00 % correct responses (2×)
same,Days to C,[1]; 1 mg/kg p.o. daily,4 days and 17 days and 15 days and 3 days and 21 days and 16 days
same,"RT 1-14 (retention test trials 1 to 14), mean",[1]; [8],71.4±3.4 % correct and 71.400 % correct
same,"RT 15-28 (retention test trials 15 to 28), mean",[1]; [8],87.2±4.8 % correct and 87.200 % correct
same,"retention test, mean",[1]; [8],79.2±3.5 % correct responses and 79.200 % correct responses
same,"RT 1-14 (retention test trials 1 to 14), mean",[1]; [9],73.833 % correct responses
same,"RT 15-28 (retention test trials 15 to 28), mean",[1]; [9],87.000 % correct responses
same,"retention test, mean",[1]; [9],80.333 % correct responses
same,RT overall,[1]; 10 mg/kg p.o. daily,89.00 % correct responses and 86.00 % correct responses (2×) and 75.00 % correct responses (2×) and 71.00 % correct responses
same,RT trials 1-14,[1]; 10 mg/kg p.o. daily,79.00 % correct responses (2×) and 86.00 % correct responses and 64.00 % correct responses (2×) and 71.00 % correct responses
same,RT trials 15-28,[1]; 10 mg/kg p.o. daily,100.00 % correct responses and 86.00 % correct responses (3×) and 71.00 % correct responses and 93.00 % correct responses
same,"C value (criterion value reached), mean",[1]; [10],89.333 % correct responses
same,"day to C (days to reach criterion), mean",[1]; [10],14.000 days
same,"C value (criterion value reached), mean",[1]; [11],90.0±2.6 % correct responses and 90.000 % correct responses
same,"day to C (days to reach criterion), mean",[1]; [11],11.8 ± 2.3 days and 11.800 days
same,C value,[1]; 10 mg/kg p.o. daily,89.00 % correct responses (2×) and 86.00 % correct responses (3×) and 100.00 % correct responses
same,Days to C,[1]; 10 mg/kg p.o. daily,18 days and 9 days and 5 days and 12 days and 15 days and 25 days
same,"RT 1-14 (retention test trials 1 to 14), mean",[1]; [12],58.4±4.1 % correct and 58.400 % correct
same,"RT 15-28 (retention test trials 15 to 28), mean",[1]; [12],71.4±6.1 % correct and 71.400 % correct
same,"retention test, mean",[1]; [12],65.0±3.5 % correct responses and 65.000 % correct responses
same,"RT 1-14 (retention test trials 1 to 14), mean",[1]; [13],59.333 % correct responses
same,"RT 15-28 (retention test trials 15 to 28), mean",[1]; [13],72.667 % correct responses
same,"retention test, mean",[1]; [13],66.000 % correct responses
same,RT overall,[1]; 100 mg/kg p.o. daily,75.00 % correct responses and 71.00 % correct responses and 57.00 % correct responses (2×) and 68.00 % correct responses (2×)
same,RT trials 1-14,[1]; 100 mg/kg p.o. daily,64.00 % correct responses (2×) and 50.00 % correct responses (2×) and 57.00 % correct responses and 71.00 % correct responses
same,RT trials 15-28,[1]; 100 mg/kg p.o. daily,86.00 % correct responses (2×) and 79.00 % correct responses and 64.00 % correct responses (2×) and 57.00 % correct responses
same,"C value (criterion value reached), mean",[1]; [14],86.333 % correct responses
same,"day to C (days to reach criterion), mean",[1]; [14],10.333 days
same,"C value (criterion value reached), mean",[1]; [15],86.4±0.7 % correct responses and 86.400 % correct responses
same,"day to C (days to reach criterion), mean",[1]; [15],9.0 ± 2.8 days and 9.000 days
same,C value,[1]; 100 mg/kg p.o. daily,85.00 % correct responses and 86.00 % correct responses (4×) and 89.00 % correct responses
same,Days to C,[1]; 100 mg/kg p.o. daily,11 days and 3 days and 10 days and 18 days and 17 days
same,animals with improved memory performance (decrease in the number of days needed to reach criterion),"[1]; 1, 10, 100 mg/kg p.o., six aged macaques",Five of the six
same,days to criterion versus vehicle,"[1]; each dose (1, 10, 100 mg/kg p.o.), Bonferroni t-test, p<0.050, old-9 excluded",significant decrease
same,learning ability and long term memory of normal aged non-human primates,[1]; summary of study,significantly improves
same,behavioral or physical side effects,[2],no noticeable behavioral or physical side effects
COc1ccc(C2CNC(=O)C2)cc1OC1CCCC1 (centres unmarked) [rolipram],age-dependent loss of hippocampal-dependent memory and cellular long-term potentiation,[3],ameliorates
